Assay results taken from ChEMBL document CHEMBL1145867, “Muraymycins, novel peptidoglycan biosynthesis inhibitors: synthesis and SAR of their analogues” (2003).
In brackets after ≈: the same amount, converted by molar mass.

Key:
Candida albicans = assay: In vitro antimicrobial activity against Candida albicans […] at 32 ug/ml soluble peptidoglycan; type: functional
Enterococcus faecalis [1] = assay: In vitro antimicrobial activity against Enterococcus faecalis GC 4555 at 10.7 ug/ml soluble peptidoglycan; type: functional
Enterococcus faecalis [2] = assay: In vitro antimicrobial activity against Enterococcus faecalis GC 842 at 10.7 ug/ml soluble peptidoglycan; type: functional
Enterococcus faecalis [3] = assay: In vitro antimicrobial activity 10.7 ug/ml soluble peptidoglycan; type: functional
Staphylococcus sp. [4] = assay: In vitro antimicrobial activity against CNS GC 4538 at 10.7 ug/ml soluble peptidoglycan; type: functional
Staphylococcus aureus [5] = assay: In vitro antimicrobial activity against Staphylococcus aureus GC 1131 at 10.7 ug/ml soluble peptidoglycan; type: functional
Staphylococcus aureus [6] = assay: In vitro antimicrobial activity against Staphylococcus aureus GC 2216 at 10.7 ug/ml soluble peptidoglycan; type: functional
Staphylococcus aureus [7] = assay: In vitro antimicrobial activity against Staphylococcus aureus GC 4536 at 10.7 ug/mL soluble peptidoglycan; type: functional
Staphylococcus sp. [8] = assay: In vitro antimicrobial activity against CNS GC 4547 at 10.7 ug/ml soluble peptidoglycan; type: functional
Staphylococcus sp. [9] = assay: In vitro antimicrobial activity against Coagulase-negative staphylococcus GC 4538 at 10.7 ug/ml soluble peptidoglycan; type: functional
Bacteria = assay: In vitro antimicrobial activity against gram-negative organisms (10)

MIC (Candida albicans): 32 µg/mL (≈ 30.7 µM)
MIC (Enterococcus faecalis [1]): 64 µg/mL (≈ 61.4 µM)
MIC (Enterococcus faecalis [2]): 64 µg/mL (≈ 61.4 µM)
MIC (Enterococcus faecalis [3]): 64 µg/mL (≈ 61.4 µM)
MIC (Staphylococcus sp. [4]): 128 µg/mL (≈ 123 µM)
MIC (Staphylococcus aureus [5]): 128 µg/mL (≈ 123 µM)
MIC (Staphylococcus aureus [6]): 128 µg/mL (≈ 123 µM)
MIC (Staphylococcus aureus [7]): 128 µg/mL (≈ 123 µM)
MIC (Staphylococcus sp. [8]): 128 µg/mL (≈ 123 µM)
MIC (Staphylococcus sp. [9]): 128 µg/mL (≈ 123 µM)
MIC (Bacteria): 64 µg/mL (≈ 61.4 µM)
SMILES: COc1ccc(Cn2c(=O)ccn([C@@H]3OC([C@@H](O)[C@H](NCCCNC(=O)[C@H](NC(=O)OCc4ccccc4)C(O)C(C)C)C(=O)OC(C)(C)C)[C@@H](O[Si](C)(C)C(C)(C)C)[C@H]3O[Si](C)(C)C(C)(C)C)c2=O)cc1 (stereo partly specified)
